Experimental data: patent US8748575B2, “Therapeutic peptides” (Combimab, Inc., priority 2010, dated 2014)

How the values were obtained:
GC-C = biological target: T1, GC-C (Mus musculus, UniProt Q3UWA6); assay: Intestinal membrane 125I-STa competitive radioligand binding assay; parameters: key to I-125 binding assay: 1+ (lowest activity/potency); ++: Results are graded from 1+ (lowest activity/potency) to 5+ (highest activity/potency); +++: Results are graded from 1+ (lowest activity/potency) to 5+ (highest activity/potency); ++++: Results are graded from 1+ (lowest activity/potency) to 5+ (highest activity/potency); +++++: 5+ (highest activity/potency); conditions: for I-125 binding assay: graded activity/potency, mouse intestinal membranes
T1 construct: freshly prepared mouse intestine membranes; from tissue; host or cells: mouse intestine (membrane preparation)
T1 sequence (Q3UWA6 20-1072): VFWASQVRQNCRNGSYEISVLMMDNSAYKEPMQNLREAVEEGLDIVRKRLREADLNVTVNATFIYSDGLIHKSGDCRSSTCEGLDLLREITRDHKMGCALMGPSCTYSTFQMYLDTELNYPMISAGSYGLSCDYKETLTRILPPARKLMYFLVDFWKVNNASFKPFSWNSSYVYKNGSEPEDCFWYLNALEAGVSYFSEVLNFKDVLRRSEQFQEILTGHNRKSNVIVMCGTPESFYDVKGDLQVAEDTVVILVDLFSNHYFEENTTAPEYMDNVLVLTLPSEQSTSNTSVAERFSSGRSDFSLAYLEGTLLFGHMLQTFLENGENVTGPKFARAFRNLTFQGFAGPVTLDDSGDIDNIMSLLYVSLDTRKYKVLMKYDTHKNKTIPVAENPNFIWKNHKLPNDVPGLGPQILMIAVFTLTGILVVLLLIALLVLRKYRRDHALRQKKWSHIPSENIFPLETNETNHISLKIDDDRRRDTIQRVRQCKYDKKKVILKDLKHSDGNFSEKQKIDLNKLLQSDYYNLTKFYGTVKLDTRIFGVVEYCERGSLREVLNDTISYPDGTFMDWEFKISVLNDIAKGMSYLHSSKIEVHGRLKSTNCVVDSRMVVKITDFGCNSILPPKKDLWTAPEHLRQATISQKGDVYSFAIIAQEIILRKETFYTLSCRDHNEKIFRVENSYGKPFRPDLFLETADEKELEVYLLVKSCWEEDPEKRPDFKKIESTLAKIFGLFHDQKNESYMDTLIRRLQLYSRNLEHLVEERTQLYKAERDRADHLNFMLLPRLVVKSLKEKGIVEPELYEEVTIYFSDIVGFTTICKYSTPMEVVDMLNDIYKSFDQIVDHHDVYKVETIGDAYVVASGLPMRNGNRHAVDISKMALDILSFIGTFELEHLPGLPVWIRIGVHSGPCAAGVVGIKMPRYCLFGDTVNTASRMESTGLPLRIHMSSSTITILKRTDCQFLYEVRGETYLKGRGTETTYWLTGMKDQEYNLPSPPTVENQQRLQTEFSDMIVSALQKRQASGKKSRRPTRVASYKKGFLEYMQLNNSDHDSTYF
Procedure: Intestinal membrane 1-125 labeled radioligand binding assay. The intestinal membrane radioligand binding assay was used to assess whether a novel compound could displace ^125I-STa from GC-C (Crane et al., 1992). Each analog was analyzed for its ability to displace ^125I-STa from GC-C in a competitive binding assay. ^125I-ST Displaced” was determined by co-incubating STa analogs (10 μM) with 50,000 DPM of ^125I-STa (1-18) in the presence of mouse intestinal membranes. The displacement (n=3) for each analog was determined relative to a vehicle control.
Membranes were prepared from freshly harvested mouse intestines by first washing away the blood or feces with ice-cold Dulbecco's PBS. Washed organs were minced with a single-edged razor blade, followed by homogenization on ice in 50 mM Tris, pH 7.6, containing 1 mM EDTA, 1 mM PMSF, 1 mM DTT. Debris was then removed by a 15 minute centrifugation at 3,000×G and 4° C. The supernatant is then passed through successively smaller needles (18 gauge through 25 gauge) and frozen at −70° C. until used as a tissue homogenate. If intended for use as isolated membranes, the above homogenate was centrifuged (100,000×G) at 4° C. for 1 hour while fresh and the pellet was re-suspended in homogenization buffer.
The assay was performed in 96 well filter plates which were pre-incubated overnight with 200 μl of 0.3% polyethylenimine (w/v) and washed three times by aspiration with 300 μl of Wash Buffer (150 mM NaCl, 20 mM Sodium Phosphate pH=7.2, 1 mM EDTA) immediately before use. Into each well of was added 50 μl of 3× Binding buffer (150 mM Tris-HCl pH=7.6, 1.98 mM Cysteamine, 0.3% Bacitracin, 1350 mM NaCl, 3 mM EDTA), 40 μl of double-distilled water, 10 μl of either double-distilled water or cold ligand (50 uM STa (5-18) in double-distilled water), 10 μl of increasing concentrations (125 DPM/ul to 50,000 DPM/ul) of radiolabeled 125I -STa (1-18) and finally 40 μl (approximately 2 mg protein/ml) of freshly prepared mouse intestine membranes. The plates were then incubated with mixing at 37 C for two hr, washed successively with six 200 μl aliquots of Wash Buffer and aspirated to dryness. The filter bottoms of each well were punched into individual borosilicate tubes and bound radioactivity determined in a gamma counter. Protein content was determined on an aliquot of the mouse intestine membranes used in the Biorad Protein Assay.

[1] = Mouse intestinal secretion assay (suckling mouse assay); format: in vivo; parameters: key to Mouse intestinal secretion assay (suckling mouse): 1+ (lowest activity/potency); ++: Results are graded from 1+ (lowest activity/potency) to 5+ (highest activity/potency); +++: Results are graded from 1+ (lowest activity/potency) to 5+ (highest activity/potency); ++++: Results are graded from 1+ (lowest activity/potency) to 5+ (highest activity/potency); +++++: 5+ (highest activity/potency); conditions: for Mouse intestinal secretion assay (suckling mouse): graded activity/potency
Procedure: A relevant disease model is the suckling mouse model in which STa (5-18) is deposited into the stomach of 3-4 day old mice, and the accumulation of fluid in their intestines is determined gravimetrically (Parkinson et al., 1994). All GCC peptides were formulated to the desired concentration in Dulbecco's PBS (1×, No Ca++, no Mg++) containing […] immediately prior to dosing. Proteinase inhibitors were prepared as stock solutions in PBS and added to dosing solutions by serial dilution, as needed. The dosing solution (50 μL) was delivered into the stomachs of 2-4 day old mice (3 per dosing group) using a plastic tube attached to the needle of a 1 mL tuberculin syringe. After 3 hours, the animals were sacrificed and dissected to determine the individual weights of the intestines and the rest of the carcass, respectively.

T84 cells (GC-C) = assay: Intact T84 cell cGMP accumulation assay; format: cell-based, Human; parameters: key to CGMP accumulation assay: 1+ (lowest activity/potency); ++: Results are graded from 1+ (lowest activity/potency) to 5+ (highest activity/potency); +++: Results are graded from 1+ (lowest activity/potency) to 5+ (highest activity/potency); ++++: Results are graded from 1+ (lowest activity/potency) to 5+ (highest activity/potency); +++++: 5+ (highest activity/potency); conditions: for CGMP accumulation assay: graded activity/potency, T84 cells; for activity in the cGMP accumulation assay: FIG. 22, compared to STa peptide
Procedure: The intact T84 cell assay was used to detect the accumulation of cGMP, the product of agonism, upon interaction with a compound (Visweswariah et al., 1992). Human colorectal adenocarcinoma T84 cells were grown to confluence in a 24 well plate using DMEM/F12 medium supplemented with 10% FBS. The media was aspirated from each well and the cells were washed three times with Dulbecco's PBS (1×, no Ca2+ or Mg2+). The cells were then incubated for 30 minutes at 37° C. with 1 mM […] (IBMX) in Optimem medium (no FBS), either with or without potential antagonists. After incubation under these conditions, a 10× concentrated stock of a known GC-C agonist (e.g., STa (5-18)) in PBS was added to each well and the incubation continued for an additional 15 min at 37° C.
The reaction was stopped by the addition of 200 μL of Passive Lysis Buffer (Promega) to each well. The supernatant was removed for cGMP quantitation by RIA using ^125I-labeled cGMP 54 antibody relative to an external cGMP standard curve. The cells were scraped from the surface for protein content determination using a BioRad Protein Assay.

[2] = FIG. 20, compared to ST peptide
[3] = FIG. 21, compared to linaclotide

Substance	activity in the I-125 labeled radioligand binding assay (GC-C; [2])	I-125 binding assay (GC-C)	activity in the mouse intestinal secretion assay ([1]; FIG. 26, compared to STa)	Mouse intestinal secretion assay (suckling mouse) [1]	CGMP accumulation assay (T84 cells (GC-C))	activity in the cGMP accumulation assay (T84 cells (GC-C); second experiment)	activity in the I-125 labeled radioligand binding assay (GC-C; [3])	activity in the I-125 labeled radioligand binding assay (GC-C; FIG. 18, compared to STa)	activity in the I-125 labeled radioligand binding assay (GC-C; FIG. 19, compared to linaclotide)	activity in the mouse intestinal secretion assay ([1]; FIG. 24, compared to linaclotide)	activity in the mouse intestinal secretion assay ([1]; FIG. 25, compared to STa peptide)	activity in the cGMP accumulation assay (T84 cells (GC-C))
H2N Cys Cys Glu Leu Cys Cys Asn Thz Ala Cys Ala Gly Cys Tyr COOH (CCELCCNXACAGCY; not fully specified; non-natural residue Thz; Modified Amino Acid (8)..(8): Xaa8 = Thz = Thiazolidine (4-thiazolidine-2-carboxylic acid), Tzd) [Peptide D]	superior to ST peptide	+++++	higher activity than STa	+++++	+++++	higher than the STa peptide						
H2N Cys Cys Glu Leu Cys Cys Asn HyPro Ala Cys Ala Gly Cys Tyr COOH (CCELCCNXACAGCY; not fully specified; non-natural hydroxy residue; Modified Amino Acid (8)..(8): Xaa8 = HyPro = Hydroxy-Proline, Hyp, Hydroxyproline) [Peptide C]	comparable to ST peptide	++			+++	lower than the STa peptide	lower than linaclotide					
H2N Cys Cys Glu Leu Cys Cys Asn Dhp Ala Cys Ala Gly Cys Tyr COOH (CCELCCNXACAGCY; not fully specified; non-natural residue Dhp; Modified Amino Acid (8)..(8): Xaa8 = Dhp = 3,4,-dihydro-Proline, D-Pro 3,4-Dehydroproline) [Peptide A]	superior to ST peptide	+++++	higher activity than STa	+++++	+++++	higher than the STa peptide	superior to linaclotide	better activity than STa	superior activity compared to linaclotide	better activity than linaclotide	higher activity than the STa peptide	higher than the STa peptide
H2N Cys Cys Glu L-Thr Cys Cys Asn Pro Ala Cys Ala Gly Cys Tyr COOH (H-CCETCCNPACAGCY-OH; not fully specified (bridges); printed as Cys Cys Glu Thr Cys Cys Asn Pro Ala Cys Ala Gly Cys Tyr; cysteine pairing not given here) [Peptide B]		++++	lower activity	+++	+++	lower than the STa peptide		activity comparable to STa				
